Where “and” joins values, the source holds several entries; their conditions need not be identical. Equal entries are not always repeated. Inconclusive results and toxic doses are left out.

The assay relates to L1210 leukemia ip in BDF1 mice, survival T/C. The experiment in a line: NCI In Vivo Anticancer Drug Screen. Data for tumor model L1210 Leukemia (intraperitoneal) in B6D2F1 (BDF1) mice. As to conditions: endpoint: mean survival time, higher = longer survival. Summed up: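 Each compound was tested against a transplantable tumor grown in mice. The endpoint was survival, with treated animals benchmarked against vehicle controls as a simple ratio.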

Setting [1] is: dose: 100.0 mg/kg/injection, schedule: Q01DX001 (ip), vehicle: saline.
Setting [2] is: dose: 400.0 mg/kg/injection, schedule: Q01DX001 (ip), vehicle: saline.
Setting [3] is: dose: 100.0 mg/kg/injection, schedule: Q01DX009 (ip), vehicle: Klucel (hydroxypropylcellulose) (HPC).
The mark [4] stands for this setting: dose: 200.0 mg/kg/injection, schedule: Q01DX009 (ip), vehicle: Klucel (hydroxypropylcellulose) (HPC).
[5] abbreviates: dose: 400.0 mg/kg/injection, schedule: Q01DX009 (ip), vehicle: Klucel (hydroxypropylcellulose) (HPC).
Where [6] appears, read: dose: 100.0 mg/kg/injection, schedule: Q01DX001 (ip), vehicle: carboxymethylcellulose (CMC).
[7] abbreviates: dose: 200.0 mg/kg/injection, schedule: Q01DX001 (ip), vehicle: carboxymethylcellulose (CMC).
The mark [8] stands for this setting: dose: 400.0 mg/kg/injection, schedule: Q01DX001 (ip), vehicle: carboxymethylcellulose (CMC).
Where [9] appears, read: dose: 50.0 mg/kg/injection, schedule: Q01DX001 (ip), vehicle: saline.
Where [10] appears, read: dose: 200.0 mg/kg/injection, schedule: Q01DX001 (ip), vehicle: saline.
The mark [11] stands for this setting: dose: 100.0 mg/kg/injection, schedule: Q04DX003 (ip), vehicle: Klucel (hydroxypropylcellulose) (HPC).
The mark [12] stands for this setting: dose: 200.0 mg/kg/injection, schedule: Q04DX003 (ip), vehicle: Klucel (hydroxypropylcellulose) (HPC).
Where [13] appears, read: dose: 400.0 mg/kg/injection, schedule: Q04DX003 (ip), vehicle: Klucel (hydroxypropylcellulose) (HPC).
The mark [14] stands for this setting: dose: 100.0 mg/kg/injection, schedule: Q01DX001 (ip), vehicle: Klucel (hydroxypropylcellulose) (HPC).
The mark [15] stands for this setting: dose: 200.0 mg/kg/injection, schedule: Q01DX001 (ip), vehicle: Klucel (hydroxypropylcellulose) (HPC).

Regarding `O=[N+]([O-])c1ccccc1N=Nc1c(O)[nH]c2cccc(C(F)(F)F)c12`, the T/C is 97 % of control (dose: 100.0 mg/kg/injection, schedule: Q01DX001 (ip), vehicle: acetone); 103 % of control under setting [1]; 97 % of control (dose: 200.0 mg/kg/injection, schedule: Q01DX001 (ip), vehicle: acetone); 97 % of control (dose: 400.0 mg/kg/injection, schedule: Q01DX001 (ip), vehicle: acetone); 87 % of control under setting [2].
For `Cc1cc([N+](=O)[O-])c(NCCOC(=O)c2ccccc2Cl)c([N+](=O)[O-])c1`, the T/C under setting [3] is 102 % of control, the T/C under setting [4] is 103 % of control and the T/C under setting [5] was 102 % of control.
Take `Cc1ncc(CC(=O)O)c2c1OC(C)(C)OC2`: the T/C by setting is: under setting [6], 101 % of control; under setting [7], 106 % of control; under setting [8], 98 % of control.
For the molecule `CC/C(C)=N\O`, the T/C by setting is: under setting [9], 112 % of control; under setting [1], 101 % of control; under setting [10], 93 % of control; under setting [2], 95 % of control.
Consider `CCCCS(=O)(=O)F`, for which the T/C (dose: 100.0 mg/kg/injection, schedule: Q04DX002 (ip), vehicle: saline with Tween-80) was 93 % of control.
For `O=C(CNC(=O)c1ccc(C(=O)NCC(=O)Nc2ccc(C3=NCCN3)cc2)cc1)Nc1ccc(C2=NCCN2)cc1`, the T/C (dose: 1.87 mg/kg/injection, schedule: Q01DX015 (ip), vehicle: methylcellulose (MC)) is 102 % of control; the T/C (dose: 3.75 mg/kg/injection, schedule: Q01DX015 (ip), vehicle: methylcellulose (MC)) was 103 % of control; the T/C (dose: 7.5 mg/kg/injection, schedule: Q01DX015 (ip), vehicle: methylcellulose (MC)) is 100 % of control; the T/C (dose: 10.0 mg/kg/injection, schedule: Q01DX015 (ip), vehicle: methylcellulose (MC)) is 102 % of control; the T/C (dose: 62.0 mg/kg/injection, schedule: Q01DX Z (ip), vehicle: carboxymethylcellulose (CMC)) is 188 % of control; the T/C (dose: 125.0 mg/kg/injection, schedule: Q01DX Z (ip), vehicle: carboxymethylcellulose (CMC)) was 233 % of control. In addition, the T/C reads like this: (dose: 150.0 mg/kg/injection, schedule: Q01DX001 (ip), vehicle: methylcellulose (MC)) 154 % of control; (dose: 250.0 mg/kg/injection, schedule: Q01DX Z (ip), vehicle: carboxymethylcellulose (CMC)) 106 % of control; (dose: 300.0 mg/kg/injection, schedule: Q01DX001 (ip), vehicle: methylcellulose (MC)) 158 % of control; (dose: 600.0 mg/kg/injection, schedule: Q01DX001 (ip), vehicle: methylcellulose (MC)) 187 % of control and 201 % of control and 207 % of control; (dose: 900.0 mg/kg/injection, schedule: Q01DX001 (ip), vehicle: methylcellulose (MC)) 174 % of control and 262 % of control.
As to `Cc1nc2ccccc2c(=O)n1-c1ccccc1Cl`, the T/C is, setting by setting: (dose: 100.0 mg/kg/injection, schedule: Q01DX001 (ip), vehicle: saline with Tween-80) 113 % of control; (dose: 200.0 mg/kg/injection, schedule: Q01DX001 (ip), vehicle: saline with Tween-80) 108 % of control; (dose: 400.0 mg/kg/injection, schedule: Q01DX001 (ip), vehicle: saline with Tween-80) 106 % of control.
As for `C(=C\c1cnc2ccccc2n1)/c1ccc2c(c1)OCO2`, the T/C under setting [3] was 89 % of control; the T/C under setting [11] is 95 % of control; the T/C under setting [4] was 92 % of control; the T/C under setting [12] was 91 % of control; the T/C under setting [5] was 97 % of control; the T/C under setting [13] is 93 % of control.
As for `COC(=O)c1cc(NC(=O)CC(=O)c2cccc(N)c2)cc(C(=O)OC)c1`, the T/C is 104 % of control under setting [11], 96 % of control under setting [12] and 94 % of control under setting [13].
For `CCCCCCCCCCCCCCC(=O)O`, the T/C is 108 % of control under setting [14]; 93 % of control under setting [15]; 93 % of control (dose: 400.0 mg/kg/injection, schedule: Q01DX001 (ip), vehicle: Klucel (hydroxypropylcellulose) (HPC)).
Turning to `CCOP(=S)(NCCCOC)OCC`, the T/C (dose: 100.0 mg/kg/injection, schedule: Q01DX001 (ip), vehicle: other) was 94 % of control; the T/C (dose: 100.0 mg/kg/injection, schedule: Q01DX009 (ip), vehicle: other) was 92 % of control; the T/C (dose: 100.0 mg/kg/injection, schedule: Q04DX003 (ip), vehicle: other) is 87 % of control; the T/C (dose: 200.0 mg/kg/injection, schedule: Q01DX001 (ip), vehicle: other) is 93 % of control; the T/C (dose: 200.0 mg/kg/injection, schedule: Q01DX009 (ip), vehicle: other) was 93 % of control; the T/C (dose: 200.0 mg/kg/injection, schedule: Q04DX003 (ip), vehicle: other) is 92 % of control. Further, the T/C was 98 % of control (dose: 400.0 mg/kg/injection, schedule: Q01DX001 (ip), vehicle: other); 88 % of control (dose: 400.0 mg/kg/injection, schedule: Q01DX009 (ip), vehicle: other); 93 % of control (dose: 400.0 mg/kg/injection, schedule: Q04DX003 (ip), vehicle: other).
For `CCCCNc1c(NCCCC)c(=O)c1=O`, the T/C runs as follows: under setting [11], 90 % of control; under setting [12], 90 % of control; under setting [13], 91 % of control.
As for `COc1cc(N(CCO)CCO)ccc1NC(=O)c1ccccc1`, the T/C by setting is: (dose: 12.5 mg/kg/injection, schedule: Q01DX001 (ip), vehicle: carboxymethylcellulose (CMC)) 93 % of control; (dose: 12.5 mg/kg/injection, schedule: Q01DX009 (ip), vehicle: Klucel (hydroxypropylcellulose) (HPC)) 104 % of control; (dose: 12.5 mg/kg/injection, schedule: Q04DX003 (ip), vehicle: Klucel (hydroxypropylcellulose) (HPC)) 97 % of control; (dose: 25.0 mg/kg/injection, schedule: Q01DX001 (ip), vehicle: carboxymethylcellulose (CMC)) 98 % of control; (dose: 25.0 mg/kg/injection, schedule: Q01DX009 (ip), vehicle: Klucel (hydroxypropylcellulose) (HPC)) 104 % of control; (dose: 25.0 mg/kg/injection, schedule: Q04DX003 (ip), vehicle: Klucel (hydroxypropylcellulose) (HPC)) 95 % of control. In addition, the T/C runs as follows: (dose: 50.0 mg/kg/injection, schedule: Q01DX009 (ip), vehicle: Klucel (hydroxypropylcellulose) (HPC)) 97 % of control; (dose: 50.0 mg/kg/injection, schedule: Q04DX003 (ip), vehicle: Klucel (hydroxypropylcellulose) (HPC)) 97 % of control.
Consider `Cc1cn(C2CCCO2)c(=O)nc1N` (stereo not given), for which the T/C reads like this: under setting [9], 103 % of control; under setting [1], 97 % of control; under setting [10], 95 % of control; under setting [2], 101 % of control.
`CCCCCCCCCCCCNC(=O)Nc1cccc(C)c1C`: the T/C was 89 % of control under setting [3]; 98 % of control under setting [11]; 100 % of control under setting [4]; 95 % of control under setting [12]; 89 % of control under setting [5]; 95 % of control under setting [13].
For `Cc1nc(N)[nH]c(=O)c1CCCNS(=O)(=O)c1ccccc1`, the T/C by setting is: (dose: 50.0 mg/kg/injection, schedule: Q01DX001 (ip), vehicle: Klucel (hydroxypropylcellulose) (HPC)) 105 % of control; under setting [14], 94 % of control; under setting [15], 90 % of control.
On to `C1CNC(CN2CCCC2)C1` (stereo not given), for which the T/C is 93 % of control (dose: 75.0 mg/kg/injection, schedule: Q01DX001 (ip), vehicle: saline); 101 % of control (dose: 150.0 mg/kg/injection, schedule: Q01DX001 (ip), vehicle: saline); 103 % of control (dose: 300.0 mg/kg/injection, schedule: Q01DX001 (ip), vehicle: saline).
Turning to `Cc1ccc(C(=O)Cc2ccccc2)cc1`, the T/C runs as follows: (dose: 100.0 mg/kg/injection, schedule: Q04DX002 (ip), vehicle: Klucel (hydroxypropylcellulose) (HPC)) 94 % of control; (dose: 200.0 mg/kg/injection, schedule: Q04DX002 (ip), vehicle: Klucel (hydroxypropylcellulose) (HPC)) 98 % of control; (dose: 400.0 mg/kg/injection, schedule: Q04DX002 (ip), vehicle: Klucel (hydroxypropylcellulose) (HPC)) 110 % of control.
Consider `CC12CCC(CC1Cl)C2` (stereo not given), for which the T/C reads like this: (dose: 50.0 mg/kg/injection, schedule: Q01DX001 (ip), vehicle: carboxymethylcellulose (CMC)) 93 % of control; under setting [6], 91 % of control; under setting [7], 91 % of control; under setting [8], 96 % of control.

For the origin of these results see PubChem BioAssay AID248 (DTP/NCI, 2004).
